“Also recorded” adds a separate entry of the source.

As a reminder, the IC50 is the concentration needed to halve the response being measured.

Assay [1] deals with Met-triggered cell scattering, MDCK cells. Description: HGF-induced MDCK cell scattering assay. Format: cell-based. The note with it: Canis lupus familiaris; MDCK cells, 20 ng/ml HGF; read-out: IC50 scattering inhibition. On the procedure: (§1) MDCK cells were grown in Dulbecco's modified Eagle's medium (DMEM) (Gibco BRL) containing 4 mM L-glutamine and supplemented with 2% (v/v) foetal bovine serum (Gibco BRL), 100 U/mL penicillin, and 100 μg/mL streptomycin. Cells were plated at a density of 1000 cells per well in 24-well microplates and allowed to settle overnight at 37° C. in a humidified atmosphere of 5% CO2 prior to treatments. MCF10A human breast cells, MDA-MB231 human breast cancer cells, GTL-16 human gastric carcinoma cells, HepG2 human hepatocellular carcinoma cells, U-87 human glioblastoma-astrocytoma cells and LLC Lewis lung carcinoma cells were grown in RPMI medium (Gibco BRL) containing 4 mM L-glutamine and supplemented with 2% (v/v) foetal bovine serum (Gibco BRL), 100 U/mL penicillin, and 100 μg/mL streptomycin and kept at 37° C. in a humidified atmosphere of 5% CO2.
(§2) For scattering assays, MDCK cells were pre-incubated with compounds for 2 hours at 0.1-100 μM concentrations at 37° C. in a humidified atmosphere of 5% CO2, followed by 24 hr stimulation with 20 ng/ml HGF (R&D Systems), as previously described (Patane et al., Biochem Biophys Res Commun 375, 184-189, 2008). The cells were further incubated at 37° C. in an atmosphere of 5% CO2 for 24-48 hours, washed with phosphate-buffered saline (PBS; Gibco BRL), and fixed in PFA (Sigma). The quantification of scattering response was performed by counting the number of cells with scattered morphology in 30 independent colonies. The […] corresponds to the concentration of compounds leading to a 50% inhibition of Met-triggered cell scattering. Active compounds were assayed to impair scattering response also on human breast MCF10A cells following the same procedure. For survival assays, GTL-16, HepG2 and U-87 cells were cultured in serum-free media for 24 hours prior to compound addition for 48 hours. Viability was assessed with the Cell Titer Glo Luminescent Assay (Promega). For in vitro tumorigenesis, soft agar growth assays were preformed using GTL-16, HepG2, and U-87 cells, as previously described (Patane et al., Cancer Res 66, 4750-4757, 2006).
Compounds were first submitted to a biological screening of cell motility, namely scattering response. MDCK epithelial cells acquire a “scattered phenotype” following stimulation by the Met ligand, HGF (Chan et al., J Biomol Screen. 13, 847-854, 2008; Corso et al., Trends Mol Med 11, 284-292, 2005; Patane et al., Biochem Biophys Res Commun 375, 184-189, 2008), allowing direct evaluation of compounds on Met functions. The Met inhibitor […] was used as control in all assays (Schiering et al., Proc Natl Acad Sci USA 100, 12654-12659, 2003).

Assay [2] has as its system GTL-16 cells. Description: Soft agar anchorage-independent growth (in vitro tumorigenesis), GTL-16. Type of assay: cell-based, human. On the procedure: as §1
as §2, with “2006). […]” for “2006).”

Assay [3] relates to Met phosphorylation, HepG2 cells. Description: Met phosphorylation upon HGF stimulation in HepG2 cells. Type of assay: cell-based, human. As to the method: After starvation, cells were pretreated with inhibitors, then stimulated with HGF, and total extracts were analyzed as described (Maina et al., Mol Cell 7, 1293-1306, 2001). Antibodies used were anti-tubulin (Sigma), anti-phospho Y1234-1235-Met, anti-Akt, anti-phospho-Akt, anti-phospho-Gab1, anti phosphor-ErbBs, anti-phospho-PDGFR, anti-PDGFRs, anti-ERKs (Cell Signaling), anti-ErbBs, anti-Met (Santa Cruz).
Activation of Met by HGF can be biochemically evaluated by following its phosphorylation levels and activation of downstream targets. We started to biochemically characterise the inhibitory properties of identified compounds by following Met phosphorylation and its downstream targets in HepG2 cells. […] These findings were further supported using other cell lines, such as MDA-MB231 human breast cancer cells (FIG. 2).

The test system of assay [4] is GTL-16 cells. Description: In vivo tumorigenesis, GTL-16 cells injected intra-peritoneally in nude mice. On the procedure:
Xenografts of GTL-16 cells were established by intraperitoneal (i.p.) or subcutaneously (into the flank/leg region) injection of cells (10^6) in nude mice (S/SOPF SWISS NU/NU; Charles River). Mice were then treated with the compound of example 4 (i.p. 30 mg kg-1) or vehicle every two days (GTL-16 cell intra-peritoneally injected at d=0, treatment started at d=1) or every day (GTL-16 cell intra-peritoneally injected at d=0, treatment started at d=7; GTL-16 cell subcutaneously injected at d=0, treatment started at d=1). Treatments were performed either one day or seven days after cancer cell injection. Mice were then sacrificed, and tumor nodule numbers present in the peritoneal cavity, the measure of their diameter and their total weight was evaluated. Three independent tumorigenesis assays were performed (8 mice per group were used).
We evaluated the ability of compounds of general formula to impair tumour growth in vivo using nude mice injected intra-peritoneally with GTL-16 cells. […] For example, when compounds were administered one day after intraperitoneally injection of GTL-16 cells, the mean numbers of nodules were the following: a) mice trated with vehicle: <1 mm: 3; 1-2 mm: 9.3; 2-5 mm: 11; >5 mm: 3.5. b) mice treated with the compound of example 4: <1 mm: 0.3; 1-2 mm: 1.3; 2-5 mm: 1; >5 mm: 0.8 (FIG. 3). […] Moreover, tumour growth of GTL-16 cells subcutaneously injected was reduced by approximately 35% in mice treated with compounds (data not shown). Taken together, these findings provide evidence that the identified new scaffold interferes with tumour growth in vivo.

[5] abbreviates: i.p. 30 mg kg-1, treatment one day after i.p. injection of GTL-16 cells.
The mark [6] stands for this setting: nude mice injected i.p. with GTL-16 cells.

For `O=C(Cc1cc(C(F)(F)F)cc(C(F)(F)F)c1)N[C@@H](Cc1ccccc1)C(=O)Nc1ccc(-c2cn3c(n2)sc2ccccc23)cc1` [Example 4, (S)-2-(3,5-bis(trifluoromethyl)phenylacetamido)-3-phenyl-N-[4-(imidazo[2,1-b]benzothiazol-2-yl)phenyl]propanamide], the half-maximal inhibitory concentration (IC50) in assay [1] came to 0.171 µM. Besides, in the assay with GTL-16 cells [2] (GTL-16 cells, dose dependent, listed as XVI), the Met-triggered anchorage-independent growth result is “severely reduced; also recorded: severely affected”. Inhibition in the assay on GTL-16 cells [2] (Homo sapiens, soft agar growth, GTL-16) was half-maximal at 0.811 µM (IC50). In assay [3], the Met phosphorylation result is “significantly reduced”. In addition, in the assay with GTL-16 cells [4] (setting [5]), the “mean number of nodules 1-2 mm” value came to 1.3, the “mean number of nodules 2-5 mm” value is on record as 1, the “mean number of nodules <1 mm” value amounted to 0.3 and the “mean number of nodules >5 mm” value was 0.8. Moreover, in the assay on GTL-16 cells [4] (setting [6]), the number of tumours entry is “drastically reduced” and the “total weight of tumours” value is listed as “drastically reduced”.

The record behind these values is patent US8822698B2, “Aminoacid derivatives, their process of preparation and their therapeutical uses as inhibitors of oncogenic signals by the Met family” (Universite D'Aix-Marseille, priority 2009, dated 2014).
